How the values were obtained:
Type in all cases: in vivo, mouse
C57BL/10ScSn-mdx/j mice [1] = test: Total body weight of mdx mice treated 4 weeks with prednisone with or without JA-16 (Example 2); conditions: JA-16 60 mg/kg per week IP, prednisone 2 mg/kg SC 3 times a week
Description: (§1) Male C57BL/10ScSn-mdx/j and C57BL/10 (Jackson Laboratory, Bar Harbor, Me.). Mouse monoclonal anti-GDF-8 antibody JA-16, prednisone (P-9901, Sigma), or vehicle (peanut oil) was injected starting at age 5-7 weeks for 4 weeks. Mice were intraperitoneally (IP) injected with JA-16 at a dose of 60 mg/kg per week (double dosing at first week), or subcutaneously (SC) injected with prednisone at 2 mg/kg, 3 times a week. The body weight and grip strength were monitored before, during and after treatment. Results are shown in Table 3 and Table 4, respectively.

C57BL/10ScSn-mdx/j mice [2] = test: Grip strength of mdx mice treated 4 weeks with prednisone with or without JA-16 (Example 2); conditions: JA-16 60 mg/kg per week IP, prednisone 2 mg/kg SC 3 times a week
Description: as §1

C57BL/10ScSn-mdx/j mice [3] = test: Gastrocnemius and quadriceps weight in mdx mice treated 4 weeks with prednisone with or without JA-16 (Example 2); conditions: end of 4-week study
Description: as §1, with “week.” for “week. The body weight and grip strength were monitored before, during and after treatment. Results are shown in Table 3 and Table 4, respectively.”
(§2) At the end of the study, mice were sacrificed and muscle mass was assessed by dissecting and weighing the gastrocnemius and quadriceps. To confirm biological activity of prednisone, sera from a separate cohort of mice were collected and analyzed for IL6 and IL1β (Ani Lyctics, Inc., Gaithersburg, Md.).

IL6 = test: Serum IL6 in mice treated with prednisone; conditions: separate cohort of mice treated with prednisone
Description: as §2

IL1β = test: Serum IL1β in mice treated with prednisone; conditions: separate cohort of mice treated with prednisone
Description: as §2

## C[C@]12C=CC(=O)C=C1CC[C@@H]1[C@@H]2C(=O)C[C@@]2(C)[C@H]1CC[C@]2(O)C(=O)CO [Prednisone, prednisone]
C57BL/10ScSn-mdx/j mice [1]; week 0 of trial
  Total body weight (average ± SEM): 17.6 ± 1.8 g
C57BL/10ScSn-mdx/j mice [1]; week 1 of trial
  Total body weight (average ± SEM): 20.9 ± 1.8 g
C57BL/10ScSn-mdx/j mice [1]; week 2 of trial
  Total body weight (average ± SEM): 24.2 ± 1.6 g
C57BL/10ScSn-mdx/j mice [1]; week 3 of trial
  Total body weight (average ± SEM): 24.7 ± 1.5 g
C57BL/10ScSn-mdx/j mice [1]; week 4 of trial
  Total body weight (average ± SEM): 25.9 ± 1.6 g
C57BL/10ScSn-mdx/j mice [2]; week 0 of trial
  Grip strength (average ± SEM): 0.144 ± 0.010 lb
C57BL/10ScSn-mdx/j mice [2]; week 3 of trial
  Grip strength (average ± SEM): 0.177 ± 0.006 lb
C57BL/10ScSn-mdx/j mice [2]; week 4 of trial
  Grip strength (average ± SEM): 0.213 ± 0.011 lb
C57BL/10ScSn-mdx/j mice [3]
  Muscle weight (average ± SEM), Gastroc: 0.287 ± 0.023 g
  Muscle weight (average ± SEM), Quad: 0.417 ± 0.029 g
IL6
  IL6 in sera: reduced
IL1β
  IL1β in sera: reduced

Reference: patent US7785587B2, “Therapeutic methods for muscular or neuromuscular disorders” (Wyeth, priority 2003, dated 2010)
